Experimental data taken from patent publication US10226433B2, “Use of cannabinoids in the treatment of degenerative skeletal muscle diseases” (GW Research Limited, priority 2014, dated 2019).

Experiments:
[1] = test system: Mdx mice; test: CD8 positive cells in spleens of mdx mice at week 4; type: in vivo, mouse; conditions: spleen
Protocol: (§1) Mdx mice were bred and housed according to Home Office regulations. At 6 weeks of age groups of female mdx mice (control n=18, deflazcort n=18, CBD n=19) were acclimatised to 3.5% Kolliphor/water (v/v) in drinking water.
(§2) Control groups were maintained on 3.5% Kolliphor for the duration of the study. Deflazacort (DFZ) groups were maintained on 3.5% Kolliphor for 2 weeks and then maintained on 1.2 mg/kg/day DFZ in 3.5% Kolliphor for 16 weeks (n=8).
(§3) CBD groups were acclimatised to 3.5% Kolliphor for 7 days. On day 7, 3.5% Kolliphor was supplemented with CBD at 75 mg/kg/day for 3 days; CBD was then increased to 120 mg/kg/day for 16 weeks (n=8).
Spleens were recovered at week 4 and CD8 positive cells were analysed.

[2] = test system: Mdx mice; test: Real time PCR of gastrocnemius muscle of mdx mice at week 4; type: in vivo, mouse
Protocol: as §1, §2, §3
Gastrocnemius muscle was recovered at week 4 and relative gene expressions were determined.
RNA was extracted from cells following treatment with CBD. Control RNA was extracted from the control group (RNeasy kit, Qiagen). 2 μg of RNA from each sample was reversed transcribed using oligo dT primers (rt nanoscript 2, Primer Design).
Stable endogenous control genes (Pak1lip1, Htatfs1) were identified using the mouse GeNorm Kit qbase+software (Primer Design).
Real time PCR was conducted using SYBR green (Life Technologies) on an AB Biosystems Thermocycler. All real time PCR experiments were conducted with the following reaction conditions. Initial 95° C. 10 mins, followed by 40 cycles of 95° C. for 15 secs, 60° C. for 1 min, followed by melt curve analysis.
Relative levels of gene expression were determined using the standard curve method and are expressed relative to the average of the endogenous controls.

[3] = test system: Primary human satellite cells (SC); test: Human satellite cell differentiation, qPCR of Myog, Tnnt-1 and MyHC mRNA; type: cell-based; conditions: 5 days of SC exposure to DM, vs vehicle
Protocol: (§4) Primary human satellite cells (SC) were purchased from Innoprot Inc (Bizkaia-Spain) and propagated in a growth medium (GM) which contains essential and non-essential amino acids, vitamins, organic and inorganic compounds, hormones, growth factors, trace minerals and a low concentration of fetal bovine serum (5%) (Innoprot lnc/Bizkaia-Spain) in a humidified atmosphere of 95% air/5% CO2 at 37° C.
(§5) Exposure of proliferating satellite cells 4-5 days to a lower (from 10% to 0.1%) FBS concentration, plus the addition of 5 μg/ml insulin and 5 μg/ml transferrin (differentiation medium, DM), induced their differentiation into myotubes.
As described in Example 1
To further investigate the effects of the cannabinoids CBD, CBDV and THCV on human skeletal muscle precursor cell differentiation qPCR analysis was used.
In particular, skeletal muscle cell differentiation was quantified by measuring the transcript levels of myogenin (Myog), Troponin (Tnnt-1) and Myosin Heavy Chain (MyHC). All of which are widely considered muscle-specific markers, required for myotube formation.

[4] = Body mass of mdx mice over 16 weeks; type: in vivo, mouse; conditions: for Total body mass / Total body mass, difference to vehicle: at week 15, CBD 120 mg/kg/day, DFZ 1.2 mg/kg/day
Protocol: as §1, §2, §3
Mice and bottles were weighed twice weekly to monitor body mass and consumption. Mice are housed in groups, therefore average consumption is calculated.

[5] = test system: Mouse C2C12 myoblasts; test: C2C12 myoblast differentiation, qPCR of Myog and Tnnt-1 mRNA; type: cell-based; conditions: 24 h in DM, C2C12 cells, vs vehicle
Protocol: (§6) Mouse C2C12 myoblasts were propagated in a growth medium (GM) composed of Dulbecco's modified Eagle's medium supplemented with 10% fetal bovine serum (FBS), 50 U/ml penicillin plus 50 μg/ml streptomycin, and 1% L-glutamine (Invitrogen, Milan, Italy), in a humidified atmosphere of 95% air/5% CO2 at 37° C.
(§7) Exposure of proliferating C2C12 cells for 24 to 72 h to a lower (from 10% to 0.1%) FBS concentration, plus the addition of 5 μg/ml insulin and 5 μg/ml transferrin (differentiation medium, DM), induced their differentiation into myotubes.
(§8) Total RNA was isolated from […] by use of the TRI-Reagent (Life Technology, Milan, Italy), reacted with DNase-I (1 U/μl; Sigma-Aldrich) following the manufacturer's instructions, and then quantified by spectrophotometric analysis.
[…]. Final preparation of RNA was considered DNA- and protein-free if the ratio between readings at 260/280 nm was >1.7. The purified mRNA was reverse-transcribed by use of reverse transcriptase (enzyme-VILO) (Life Technology, Milan, Italy). Quantitative real-time PCR was carried out in CFX384 real time
(§9) PCR detection system (Bio-Rad, Segrate MI, Italy) with specific primers by the use of SYBR Green detection (Bio-Rad, Segrate MI, Italy). Samples were amplified simultaneously in quadruplicate in one-assay run with a non-template control blank for each primer pair to control for contamination or primer-dimers formation, and the ct (cycle threshold) value for each experimental group was determined.
(§10) The housekeeping genes (the ribosomal protein S16) has been used as an internal control to normalize the ct values, using the 2-dCt formula; differences in mRNA content between groups were as expressed as 2-ddct, as previously described (Iannotti et al. 2013)
In order to gain information about the potential effects of phytocannabinoids on myoblast differentiation, C2C12 cells were induced to differentiate for 24-48 h in DM in the presence or absence of various phytocannabinoids.
qPCR analysis was then utilized to evaluated the expression level of the canonical developmentally regulated skeletal markers Myog and Tnnt-1.

[6] = test system: Mouse C2C12 myoblasts; test: Western blot analysis of MyHC protein in differentiating C2C12 cells; type: cell-based; conditions: 72 h exposure to DM+1 μM CBD, relative to control conditions
Protocol: as §6, §7
Cells were washed two times in cold PBS and lysed with lysis solution (150 mM NaCl, 1 mM EDTA, pH 7.4, 10 mM Tris-HCl, pH 8, 1% SDS, and protease inhibitors). Lysates (50-60 ug) were boiled 5 min in Laemmli SDS loading buffer and separated by 8% SDS-polyacrylamide gel electrophoresis. Filters were incubated overnight at 4° C. with a mouse anti-MyHC (dilution, 1:1000; Millipore).
An anti-tubulin antibody (dilution, 1:5000; Sigma-Aldrich) was used to check for equal protein loading. Reactive bands were detected by chemiluminescence (ECL-plus; GE Healthcare). Images were analysed on a ChemiDoc station with Quantity one software (Bio-Rad, Segrate, Italy).
The effect of CBD 1 μM on myotube formation was confirmed by western blot analysis.

[7] = test system: Mouse C2C12 myoblasts; test: Short-term (10 min) CBD exposure of differentiating C2C12 myoblasts, qPCR; type: cell-based; conditions: DM+1 μM for 10 min
Protocol: as §6, §7, §8, §9, §10
The potential effect of short term CBD exposure at 1 μM on differentiating C2C12 cells was also tested.
The day after plating, C2C12 myoblasts were exposed to DM in presence or not of 1 μM CBD for 10 min.

[8] = test system: Primary human satellite cells (SC); test: Phase contrast microscopy of differentiating primary human satellite cells; type: cell-based; conditions: for Morphology of differentiating SC with respect to vehicle (DMSO) control: after 4 and 5 days of exposure to DM
Protocol: as §4, §5
Differentiating primary human satellite cells were also examined in phase contrast mode by means of conventional light microscopy. […] In particular, after 5 days of incubation in the presence of phytocannabinoids, the cells appeared more fused and with mature myotubes being larger in size.

Row | Structure (SMILES) | Total body mass [4] [g] | Total body mass, difference to vehicle [4] [%] | Myogenin (Myog) mRNA expression level ([5]; 1 μM) | Troponin (Tnnt-1) mRNA expression level ([5]; 1 μM) | Myogenin (Myog) mRNA expression level ([5]; 3 μM) | Troponin (Tnnt-1) mRNA expression level ([5]; 3 μM) | MyHC transcript level ([3]; 3 μM) | Myog transcript level ([3]; 3 μM) | Tnnt-1 transcript level ([3]; 3 μM) | Morphology of differentiating SC with respect to vehicle (DMSO) control ([8]; 3 μM) | also measured
1 | C=C(C)[C@@H]1CCC(C)=C[C@H]1c1c(O)cc(CCCCC)cc1O [CBD, Cannabidiol] | 29.42 | 5.6 | significant increase | significant increase | – | – | – | – | – | – | Total percentage CD8 population, difference to vehicle ([1]; n=9): 19.7%; Total percentage CD8 population ([1]; n=9, vehicle 10.9%): 8.7%; Mitochondrially encoded NADH dehydrogenase 2 (MT-ND2) relative gene expression, upregulation ([2]; n=4): 253.2%; PGC1a relative gene expression, upregulation ([2]; n=9): 125.8%; Sirtuin-1 (Sirt1) relative gene expression, upregulation ([2]; n=9): 84.9%; MyHC transcript level ([3]; 1 μM): significantly increased; Myog transcript level ([3]; 1 μM): significantly increased; Tnnt-1 transcript level ([3]; 1 μM): significantly increased; Total body mass compared with vehicle group ([4]; up to week 4, CBD 120 mg/kg/day in drinking water): did not differ; Myosin Heavy Chain (MyHC) protein expression [6]: significantly increased; Myog transcript level ([7]; then DM without drug for 3 h): significantly higher; Tnnt-1 transcript level ([7]; then DM without drug for 3 h): significantly higher; Myog transcript level ([7]; then DM without drug for 24 h): significantly higher; Tnnt-1 transcript level ([7]; then DM without drug for 24 h): significantly higher; Morphology of differentiating SC with respect to vehicle (DMSO) control ([8]; 1 μM): clear morphological differences
2 | C=C(C)[C@@H]1CCC(C)=C[C@H]1c1c(O)cc(CCCCC)c(C(=O)O)c1O [CBDA, Cannabidiolic acid] | – | – | significantly reduced | significantly reduced | significantly reduced | significantly reduced | – | – | – | – | –
3 | C=C(C)[C@@H]1CCC(C)=C[C@H]1c1c(O)cc(CCC)cc1O [CBDV, Cannabidivarin] | – | – | significant increase | significant increase | significant increase | significant increase | significantly increased | significantly increased | significantly increased | clear morphological differences | –
4 | CCCCCc1cc(O)c(C/C=C(\C)CCC=C(C)C)c(O)c1 [CBG, Cannabigerol] | – | – | – | – | significantly reduced | significantly reduced | – | – | – | – | –
5 | CCCc1cc(O)c2c(c1)OC(C)(C)[C@@H]1CCC(C)=C[C@@H]21 [THCV, Tetrahydrocannabivarin] | – | – | did not produced significant effects | did not produced significant effects | did not produced significant effects | did not produced significant effects | significantly increased | significantly increased | significantly increased | clear morphological differences | Cell fusion and size of mature myotubes ([8]; after 5 days of incubation, CBD 1 μM, CBDV and THCV 3 μM): more appreciable
6 | CC(=O)OCC(=O)[C@@]12N=C(C)O[C@@H]1C[C@H]1[C@@H]3CCC4=CC(=O)C=C[C@]4(C)[C@H]3[C@@H](O)C[C@@]12C [deflazacort, Deflazacort, reference compound] | 26.26 | 15.8 | – | – | – | – | – | – | – | – | Effect on total percentage CD8 population [1]: unaffected; Total body mass, lighter than vehicle and CBD groups ([4]; up to week 4, deflazacort 1.2 mg/kg/day in drinking water): 8.9%
